In data set [1] the target is N. gonorrhea RNase P (M1 RNA + C5 protein) (Neisseria gonorrhoeae, UniProt Q5F4W3). Briefly: Time resolved fluorescence (TRF) RNase P inhibition assay. It is filed as biochemical. The note with it: 30 min enzyme reaction, ptGLN substrate. An excerpt:
The ability of compounds of the invention to inhibit RNase P enzymes can be assessed by standard techniques. For example, the cleavage of ptRNA^Gln by the enzyme N. Gonorrhea RNase P, can be monitored in the presence and absence of a candidate compound as described in the Example 15. The progress of the RNase P-mediated cleavage reaction can be assessed by measuring the […] hybridized to the cleaved substrate.
Time Resolved Fluorescence RNase P Inhibition Assay
96-well Nunc MaxiSorp FluoroNunc plates were coated with 50 μl/well of 1 μg/ml of streptavidin in base buffer (150 mM KCl, 5 mM MgCl2, 50 mM Tris, pH 7.6) and incubated overnight. The plates were washed using TRF.96 protocol, and then blocked with 150 μl of a 1 mg/ml BSA solution in base buffer and incubated with shaking for sixty minutes. The plates were then washed twice with base buffer plus 0.01% Tween20. 50 μl of 40 nM T17-bt (biotinylated DNA oligonucleotide complementary to the RNaseP substrate leader sequence used to capture intact RNaseP substrate) was then added to all wells, and the plates were incubated with shaking for 1 hr.
A 0.4 nM solution of N. gonorrhea M1 RNA was made from a 1 μM stock solution. A 0.5 nM solution of N. gonorrhea C5 protein is made by diluting a 10 μM stock. ΔUL-ptGLN UTP-bt (10 μM stock) was diluted into PA buffer for a concentration of 40 nM.
Compounds were serially diluted in DMSO from 20 mM stocks to 6, 2, 0.6, 0.2, and 0.06 mM dilutions. These titrations were then diluted (2 μl to 100) in PA buffer, and 12.5 μl of each concentration was added in duplicate to a 96-well V-bottom polypropylene plate. The highest concentration was put in row G and the lowest in row B. Rows A & H received 12.5 μl of DMSO/PA buffer.
The enzyme reaction was initiated in the V-bottom polypropylene plates containing compound dilutions by adding 12.5 μl of the N. gonorrhea M1 solution to rows A-G. PA buffer was added to row H. 12.5 μl of the C5 solution was added similarly to the M1 solutions. 12.5 μl of the substrate solution was then added to all wells. The plates were incubated for 30 minutes at which time 12.5 μl of stop buffer was added to all wells. (Stop buffer: 500 μg/ml polyC/50 nM SA-Eu in 335 mM MgCl2 PA buffer).
The T17-biotin-coated plate was washed three times, and 37.5 μl of 75 mM MgCl2 PA buffer was added to each well. After 30 minutes incubation with the stop buffer, 12.5 μl from all of the enzyme reaction wells was transferred to the T17 plates. The plates were then incubated for 1.5 hr at room temperature with shaking. The plates were washed three times and 40 μl of Delfia enhancement solution (Wallac Oy) was added to all wells. The plates were then read on the Victor 2 plate reader.

Data set [2] deals with S. pyogenes. The data set can be described thus: Bacterial inhibition assay (growth, OD readout). It is filed as cell-based. The note with it: CAMHB-3% LHB medium, 35° C., 16-20 hours. On the procedure:
(§1) Compounds of the invention (see Table 5) were assayed for their ability to inhibit bacterial growth. Compounds were diluted from 10 mM DMSO stocks to 3 mM and 1 mM in DMSO. The compounds were further diluted from these stocks into saline for 200, 120, and 20 μM stocks. Control antibiotics were diluted similarly. Overnight cultures of bacteria were made in the following manner. N. gonorrhea was streaked onto a chocolate agar plate and incubated at 35° C./5% CO2. Rather than make an overnight culture of S. pyogenes, a loopful of S. pyogenes from a blood plate or a stock plate was used the following day for direct cell suspension.
(§2) On the following day bacteria were prepared by dilution into saline with O.D. […] readings taken to determine the concentration of the bacteria. CFUs (colony forming units) were determined using the formula: CFU/mL=OD625×(1.5×10^8 CFU/mL/OD McFarland std)×dilution. The four bacterial cultures were diluted initially to 5.5×10^7 CFU/mL. The bacteria were then further diluted into medium to 5.5×10^5 CFU/mL for S. pyogenes and 5.5×10^6 CFU/mL for N. gonorrhea. S. pyogenes and N. gonorrhea were grown in CAMHB-3% LHB medium. The bacteria were added one per plate at 200 μL per well. Compounds were added in 10 μL aliquots for final concentrations of 10, 3, and 1 μM in duplicate. Control antibiotics, penicillin for S. pyogenes and ciprofloxacin for N. gonorrhea, were added from 0.8 mg/ml to 0.003 mg/ml. Plates were incubated at 35° C. with O2 for 16-20 hours for S. pyogenes, and read at OD665 in a Victor2 plate reader. Plates were incubated at 35° C. with 5% CO2 for 24 hours for N. gonorrhea at which time 40 μL of MTS reagent is added per well and incubated for 1 hour in same incubator. The plates were read at OD490. Compounds were tested at 1 μM, 3 μM, and 10 μM concentrations. The results, which are expressed as a percentage of the control, were calculated using equation 2. In this equation, O.D. is optical density; (O.D. compounds+bacteria) is the optical density observed for bacteria grown in the presence of a compound of the invention; (O.D. blank) is the optical density in the absence of bacteria; and (O.D. bacteria) is the optical density observed for bacteria growing uninhibited. Other RNase P inhibitors may be tested similarly using any bacteria of interest. [formula]

Data set [3] deals with N. gonorrhoeae. The data set can be described thus: Bacterial inhibition assay (growth, MTS readout). As to conditions: CAMHB-3% LHB medium, 35° C., 5% CO2, 24 hours. Format: cell-based. On the procedure: as §1, §2
Data set [4] addresses T1, N. gonorrhoeae RNase P holoenzyme (Neisseria gonorrhoeae, UniProt Q5F4W3).
T1 sequence (Q5F4W3 1-121): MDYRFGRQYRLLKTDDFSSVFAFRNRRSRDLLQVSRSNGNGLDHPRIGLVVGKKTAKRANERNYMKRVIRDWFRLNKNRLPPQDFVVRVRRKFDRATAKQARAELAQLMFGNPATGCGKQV
The data set can be described thus: biochemical. The note with it: 32P-labelled pGln substrate, room temperature; read-out: N. gonorrhoeae Gel assay IC50(μM) (Example 16). Here is the method:
RNase P Inhibition Polyacrylamide Gel Assay
The substrate, the precursor of tRNA^Gln, (pGln), from Synechocystis (Pascual and Vioque, 1999), was synthesized in vitro from the corresponding cDNA by T7 RNA polymerase in the presence of α^32P-GTP. Each control RNase P reaction of 10 μl contained 50 mM Tris-HCl (pH 7.8), 10 mM MgCl2, 100 mM NH4Cl, 1 mM dithiothreitol, and 0.4-1.0 pmol pGln substrate, radiolabeled to a specific activity of 1000-10,000 cpm/pmol. The reaction mixture, containing 0.1-1 nM holoenzyme, was incubated for 5-60 min at room temperature (18-24° C.), and the reaction was terminated by addition of an equal volume of 40 mM EDTA/8 M urea. The samples were electrophoresed in denaturing 8% polyacrylamide gels. The activity was quantified by exposure of the gel to a phosphorimaging screen. For test reactions that require the addition of compounds, the RNA subunits were pre-incubated with compound for 10 min at room temperature in the presence of buffer, followed by addition of the protein subunit. After a further 10 minutes of incubation, the radiolabeled substrate was added, and the reaction initiated. Products were analyzed as just described. The IC50 was the concentration of compound that was required to inhibit RNase P activity by 50%.

Data set [5] can be described thus: Cellular toxicity assay (MTS) on PBMC. Format: cell-based, human. As to conditions: human, peripheral blood mononuclear cells (PBMC); 24 hours incubation, MTS reagent; read-out: PBMC's TC50. On the procedure:
Compounds of the invention (see Table 6) were assayed for cellular toxicity as follows. Whole blood was drawn from a volunteer, and the red cells were separated from the buffy coat cells by centrifugation over ficoll-paque. The resulting peripheral blood mononuclear cells (PBMC) were collected from the interface and washed extensively with PBS by centrifugation to remove platelets and cellular debris. The cells were then plated in 96-well tissue culture plates at a density of 5×10^5 cells per mL at 200 μL per well. After an hour incubation, the candidate compounds were added at the appropriate concentrations diluted from DMSO stocks into assay buffer (RPMI medium supplemented with 10% FCS). The cells were incubated at 37° C., 100% humidity and 5% CO2 for 24 hours at which time MTS reagent was added per the manufacturer's (Promega) instructions. After 2-3 hours incubation the optical density of the wells was read on a spectrophotometer. […] The data are evaluated using equation 2 as described in Example 17, where bacterial cells are replaced by PBMC cells in the measurements. The data describes the toxicity of these compounds to a representative human cell population (PBMC's).

Where [6] appears, read: read-out: N. gonorrhoeae TRF IC50(μM) (Example 15).

Each structure is given as a SMILES string. In brackets after ≈: the same amount, converted by molar mass. Several values for one entry are separate records, joined by “and”; a condition that tells them apart may be missing. Identical values can stand only once. Like-named read-outs stand apart in the source and are kept apart here.

Regarding `CC(=NNC(=N)N)c1ccc(C(=O)Nc2cccc(C(C)=NNC(=N)N)c2)cc1` [MES 10648, Bisguanylhydrazone of 4-acetyl-N-(3-acetylphenyl)benzamide], the IC50 was 5 µM in data set [1] (setting [6]) and 2 µM in data set [4]. The MIC in data set [2] (Streptococcus pyogenes) worked out at 1 µM (≈ 0.393 µg/mL); in data set [3] (Neisseria gonorrhoeae), 10 µM (≈ 3.93 µg/mL). In addition, the CC50 at 24 h in data set [5] is more than 100 µM.

On to `CC(=NNC(=N)N)c1cccc(NC(=O)[C@@H]2Cc3ccccc3CN2C(=O)c2cccc(C(C)=NNC(=N)N)c2)c1` [MES 10848, Bisguanylhydrazone of (S)-2-(3-acetylbenzoyl)-N-(3-acetylphenyl)tetrahydro-isoquinoline-3-carboxamide], for which the figures for the IC50 in data set [1] (setting [6]) and in data set [4] were 3 µM and 6 µM, respectively. Moreover, the MIC in data set [2] (Streptococcus pyogenes) stood at 10 µM (≈ 5.53 µg/mL); in data set [3] (Neisseria gonorrhoeae), 100 µM (≈ 55.3 µg/mL). Moreover, the CC50 at 24 h in data set [5] was more than 100 µM.

Consider `CC(=NNC(=N)N)c1cccc(NC(=O)[C@H](Cc2ccc(-c3ccccc3)cc2)NC(=O)c2ccccc2)c1` [MES 10910, Guanylhydrazone of (S)-1-benzoyl-N-(3-acetylphenyl) biphenylalaninamide], for which the IC50 in data set [1] (setting [6]) was determined as 7 µM.

On to `CC(=NNC(=N)N)c1cccc(NC(=O)[C@H](CCc2ccccc2)NC(=O)c2cccc(I)c2)c1` [MES 10914, Guanylhydrazone of (S)-1-(3-iodobenzoyl)-N-(3-acetylphenyl) homophenyl-alaninamide], for which the IC50 in data set [1] (setting [6]) amounted to 6 µM.

Consider `CC(=NNC(=N)N)c1cccc(NC(=O)c2cccc(-c3ccccc3)c2)c1` [MES 10915, Guanylhydrazone of N-(3-acetylphenyl)-3-biphenylcarboxamide], for which the IC50 was 16 µM in data set [1] (N. gonorrhoeae TRF IC50(μM) (Example 15)) and 10 µM in data set [4].

Turning to `CC(=NNC(=N)N)c1cccc(NC(=O)[C@@H]2CCCN2C(=O)c2cccc(C(C)=NNC(=N)N)c2)c1` [MES 10926, Bisguanylhydrazone of (S)-1-(3-acetylbenzoyl)-N-(3-acetylphenyl) prolinamide], the IC50 came to 43 µM in data set [1] (setting [6]) and 100 µM in data set [4]. The MIC in data set [2] (Streptococcus pyogenes) came to 30 µM (≈ 14.7 µg/mL); in data set [3] (Neisseria gonorrhoeae), 80 µM (≈ 39.2 µg/mL). Further, in data set [5], the CC50 at 24 h was more than 100 µM.

Consider `CC(=NNC(=N)N)c1cccc(NC(=O)c2ccc(-c3ccccc3)cc2)c1` [MES 10938, Guanylhydrazone of N-(3-acetylphenyl)-4-biphenylcarboxamide], for which the IC50 in data set [1] (setting [6]) was 80 µM.

Take `CC(=NNC(=N)N)c1ccc(NC(=O)c2ccc(C(C)=NNC(=N)N)cc2)cc1` [MES 10948, Bisguanylhydrazone of 4-acetyl-N-(4-acetylphenyl)benzamide]: the IC50 in data set [1] (setting [6]) was 3 µM; in data set [4], 2 µM and 1 µM. Moreover, the MIC in data set [2] (Streptococcus pyogenes) was found to be 0.3 µM (≈ 0.118 µg/mL); in data set [3] (Neisseria gonorrhoeae), 3 µM (≈ 1.18 µg/mL). The CC50 at 24 h in data set [5] is more than 100 µM.

`N=C1/C(=C/c2ccc(-c3ccc(C(=O)O)cc3)o2)C(=O)N=C2SC(c3ccccc3)=NN12` [MES 110392]: the IC50 in data set [1] (setting [6]) is 2 µM. Besides, the MIC in data set [2] is reported as more than 100 µM; in data set [3], 100 µM (≈ 44.2 µg/mL).

Turning to `CC(=O)Oc1cccc2ccc(/C=C/c3ccc(C(=O)O)cc3)nc12` [MES 110394], the half-inhibitory concentration (IC50) in data set [1] (setting [6]) amounted to 9 µM. In addition, the “S. pyogenes MIC(μM)” value in data set [2] is reported as >100− μM. This compound also displayed an MIC in data set [3] of 10 µM (≈ 3.33 µg/mL).

With `N=C1/C(=C/c2ccc(-c3ccc(C(=O)O)cc3)o2)C(=O)N=C2SC(Cc3cccs3)=NN12` [MES 110410], in data set [1] (setting [6]), the IC50 amounted to 15 µM. In addition, the MIC is given as more than 100 µM in data set [2] and 30 µM (≈ 13.9 µg/mL) in data set [3].

With `O=C(O)c1ccc(-c2nc(-c3ccc(-c4nc(-c5ccc(C(=O)O)cc5)[nH]c4-c4ccccc4)cc3)c(-c3ccccc3)[nH]2)cc1` [MES 110417], in data set [1] (setting [6]), the 50% inhibitory concentration (IC50) amounted to 10 µM. The results for the minimal inhibitory concentration (MIC) in data set [2] and in data set [3] were more than 100 µM and 30 µM (≈ 18.1 µg/mL), respectively.

In the case of `O=C(O)c1ccc(-c2ccc(/C=C3\S/C(=N\c4ccccc4)N(c4ccccc4)C3=O)o2)cc1` [MES 110430], the IC50 in data set [1] (setting [6]) was determined as 7 µM. In addition, the MIC in data set [2] is recorded as more than 100 µM; in data set [3] it was 30 µM (≈ 14 µg/mL).

Usually IC50 stands for the midpoint of a concentration-inhibition curve. What is called MIC is the lowest concentration found to suppress growth. A lower MIC goes with a more susceptible organism.

Source of the values: patent US20050187409A1, “Inhibitors of RNase P proteins as antibacterial compounds” (priority 2003, published 2005).
